Columns and labels:
[1] = test system: neonatal rat ventricular myocytes; assay: Hypertrophy of neonatal rat ventricular myocytes (PDE3 inhibitor treatment or transfection with dominant-negative constructs, with or without norepinephrine); assay type: cell-based; conditions: neonatal rat ventricular myocytes; treatment or transfection alone
Excerpt: FIG. 5. Anti-hypertrophic actions of PDE3A1-selective targeting in neonatal rat ventricular myocytes.
In contrast, expression of the PDE3A1 dominant negative has no pro-hypertrophic effect, and actually blocks the hypertrophic responses to norepinephrine.
In neonatal rat ventricular myocytes, conventional PDE3 inhibition promotes cellular hypertrophy, which may be associated with adverse consequences in heart failure. We questioned what effect PDE3A1-selective inhibition would have. […] The F1004A substitution is a change in the amino acid sequence of PDE3A1 at amino acid position 1004 from a phenylalanine to an alanine. We transfected neonatal rat ventricular myocytes with this dominant-negative construct to competitively block the protein-protein interactions that localize PDE3A1 to specific intracellular microdomains. […] To our knowledge, this is the first direct evidence that conventional PDE3 inhibition and isoform-selective targeting have different effects in cardiac myocytes, and that some of the adverse consequences of nonselective PDE3 inhibition may be averted by isoform-selective targeting involving protein-protein interactions.

PLB = assay: cAMP-dependent phosphorylation of endogenous PLB in human myocardial membranes; assay type: biochemical; conditions: 0.1 μM cAMP; cilostamide 1 μM or rolipram 10 μM; human left ventricular microsomes
Protocol: (§1) FIG. 7 a-f. cAMP, PKA, and PDE3-inhibition increase SERCA2 activity and Ca^2+ uptake. A. After incubation of SR fractions (20 μg) in the absence or presence of the indicated concentrations of ATP and/or cAMP, without or with cilostamide or rolipram, endogenous PLB, phosphorylated PLB, and ρ-actin were detected after SDS-PAGE and immunoblotting. Data are representative of three experiments. In these and other Western blots, PLB is predominantly monomeric, most likely due to the heating of samples, prior to electrophoresis, under reducing conditions (buffer containing β-mercatoethanol, DTT, and SDS). B. Bar graph summarizing pSer16PLB/PLB total ratios. *P<0.01 vs. control (n=3 independent experiments). C. PDE activity in human cardiac SR fractions, expressed as specific activity (pmol cAMP hydrolyzed/min/mg). Results are presented as mean+/−SEM (n=3 preparations). PDE3 activity was determined as the cilostamide-sensitive fraction, and PDE4 activity as the rolipram-sensitive fraction. […] D. After incubation of SR fractions without or with the indicated concentrations of cAMP (0-10 μM), ^45Ca^2+ uptake was measured in the presence of 0.5 μM free Ca^2+. Results are presented as % increase due to cAMP, with basal Ca^2+ uptake (9.4+/−0.8 nmol/mg/min, n=3) taken as 100%. […]

SR vesicles = assay: 45Ca2+ uptake in SR vesicles from human myocardium; assay type: biochemical; conditions: cAMP 3 μM, cilostamide 1 μM; SR fractions
Protocol: as §1, with “B. Bar graph summarizing pSer16PLB/PLB total ratios. *P<0.01 vs. control (n=3 independent experiments). C.” left out, “Results are presented as mean+/−SEM (n=3 preparations).” left out, “Ca^2+.” for “Ca^2+. Results are presented as % increase due to cAMP, with basal Ca^2+ uptake (9.4+/−0.8 nmol/mg/min, n=3) taken as 100%.”
Oxalate-dependent Ca^2+ uptake was quantified as described previously (17). […] After washing four times with 4 ml buffer containing 140 mM KCl, 10 mM NaCl, 2 mM MgCl2, 1 mM CaCl2 and 50 mM imidazole-HCl, (pH 7.0), radioactivity retained on the filters was quantified by liquid scintillation counting. Free [Ca^2+] was calculated using a program obtained at http://www.stanford.edu/˜cpatton/webmaxc/webmaxcS.htm.

Structure (SMILES)	cellular hypertrophy [1]	phosphorylation of PLB at S16 by endogenous PKA (PLB)	effect on cAMP-increased ATP-dependent, oxalate-supported Ca2+ uptake (SR vesicles)
CN(C(=O)CCCOc1ccc2[nH]c(=O)ccc2c1)C1CCCCC1 [cilostamide]	promote myocyte hypertrophy	stimulated	potentiated
COc1ccc(C2CNC(=O)C2)cc1OC1CCCC1 (stereo not shown) [rolipram]	–	no effect	–

Reference: patent US9994830B2, “Methods for modulating cyclic nucleotide-mediated signaling in cardiac myocytes and compositions” (The United States of America as Represented by the …, priority 2014, dated 2018)
